# BindingDB's records for doi:10.1101/2020.09.12.293498 (Pfizer, 2020)
# pKi: −log10 of the molar value.
# Legend:
# [1] = biological target: Replicase polyprotein 1ab (Avian infectious bronchitis virus (strain Beaudette CK), UniProt P0C6Y2); experiment: FRET protease activity assay
# Procedure: (§1) PF-00835231 was evaluated against 3CLpro from a variety of other coronaviruses representing alpha, beta and gamma groups of Coronaviridae, using biochemical F rster Resonance Energy Transfer (FRET) protease activity assays.
# [2] = biological target: Replicase polyprotein 1ab (Human coronavirus HKU1 (isolate N5), UniProt P0C6X4); experiment: FRET protease activity assay
# Replicase polyprotein 1ab (Human coronavirus HKU1 (isolate N5), UniProt P0C6X4), sequence (P0C6X4 3285-3587 limits assumed): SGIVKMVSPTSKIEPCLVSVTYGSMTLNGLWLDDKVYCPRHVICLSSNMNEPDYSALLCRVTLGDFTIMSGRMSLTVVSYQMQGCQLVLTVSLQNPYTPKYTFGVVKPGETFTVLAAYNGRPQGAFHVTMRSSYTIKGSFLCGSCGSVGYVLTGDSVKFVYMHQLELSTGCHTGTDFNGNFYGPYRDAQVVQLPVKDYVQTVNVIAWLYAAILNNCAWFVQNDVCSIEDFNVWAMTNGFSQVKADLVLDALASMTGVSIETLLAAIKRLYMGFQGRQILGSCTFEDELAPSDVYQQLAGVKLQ
# Procedure: as §1
# Replicase polyprotein 1ab (Avian infectious bronchitis virus (strain Beaudette CK), UniProt P0C6Y2), sequence (P0C6Y2 2780-3086 limits assumed): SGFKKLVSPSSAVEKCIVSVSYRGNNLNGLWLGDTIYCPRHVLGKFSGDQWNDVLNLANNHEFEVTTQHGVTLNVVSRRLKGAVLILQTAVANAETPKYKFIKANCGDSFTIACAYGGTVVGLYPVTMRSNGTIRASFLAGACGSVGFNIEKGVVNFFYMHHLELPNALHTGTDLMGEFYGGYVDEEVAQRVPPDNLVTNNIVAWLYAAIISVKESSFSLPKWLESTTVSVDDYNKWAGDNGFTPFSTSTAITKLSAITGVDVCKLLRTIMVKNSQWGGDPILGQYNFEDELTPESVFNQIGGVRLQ
structure (smiles),measurement,setting,value
COc1cccc2[nH]c(C(=O)N[C@@H](CC(C)C)C(=O)N[C@@H](C[C@@H]3CCNC3=O)C(=O)CO)cc12 [WO2005113580-Ex-02],pKi,[1],8.40
same,pKi,[2],9.07
